Reference: patent publication US10377828B2, “Combination therapy for neoplasia treatment” (Boehringer Ingelheim International GmbH, priority 2013, dated 2019)
Entries after “also recorded” stand apart in the source; their conditions may differ.

Columns and labels:
Format in all cases: cell-based, human
DUCaP cells = assay: 2D cell proliferation assay (CellTiter-Glo); conditions: 10% FCS-containing growth medium, 5 days, single agent or combination
Protocol: (§1) The following method was used to determine the inhibitory effect of IGF ligand-neutralizing mAbs and androgen signaling inhibitors on the growth of prostate cancer cell lines. Assays were performed in cell growth medium containing 10% serum.
(§2) Adherent cells were detached with trypsin/EDTA solution (GIBCO, #043-9031 FU), resuspended in growth medium, centrifuged, resuspended in assay medium (supplemented with 10% heat inactivated FCS and 2 mM L-glutamine) and diluted to 5,000-40,000 cells per mL. 100 μL/well cell suspension was added to each well of a sterile flat-bottom white 96-well plate (PerkinElmer, #6005280) and plates were incubated overnight in a humidified incubator set at +37° C. and 5% CO2. On the next day supernatants were aspirated and 35 μL/well assay medium was added to all wells.
(§3) Serial dilutions of IGF mAb_1 and mAb_2 (1 μM highest concentration), MDV-3100 (10 μM highest concentration), abiraterone acetate (100 μM highest concentration) were prepared on a separate plate in assay medium (no growth factors or hormones supplemented). All agents were tested as single agents or in combination. All samples were tested in triplicate wells (100 μL/well assay). Plates were incubated for 5 days in a humidified incubator at +37° C. and 5% CO2. After this incubation period, CellTiter-Glo buffer, substrate and test plates were equilibrated to RT. CellTiter-Glo is a bioluminescent assay (Promega, #G7571) designed to determine the number of viable cells in culture, in which the generation of a luminescent signal is proportional to the amount of ATP present in cells. 100 μL of freshly mixed CellTiter-Glo reagent was added to each well. After 2 min on an orbital shaker (MTS 2/4, IKA) and 10 min incubation at RT, luminescence was recorded (luminescence reader (Genios Pro, Tecan or Victor X4, Perkin Elmer), integration time 1 sec).

MDA PCa 2b cells = assay: 2D cell proliferation assay (CellTiter-Glo); conditions: 10% FCS-containing growth medium, 5 days, single agent or combination
Protocol: as §1, §2, §3

VCaP cells [1] = assay: 2D cell proliferation assay (CellTiter-Glo); conditions: 10% FCS-containing growth medium, 5 days, single agent or combination
Protocol: as §1, §2, §3

VCaP cells [2] = assay: Thymidine incorporation assay; conditions: 96 hours, 10 μM MDV-3100 and/or 1 μM IGF mAb_1, compared to untreated controls
Protocol: VCaP cells were treated with 1 μM of IGF mAb_1 and 10 μM of MDV-3100 and the combination of both agents and incubated as triplicates in flat-bottom 96-well plates for 96 hours at a density of 5×10^4 cells per well, in the absence of R1881. For the last 24 hours of incubation, ^3H-thymidine (0.4 μCi/well; PerkinElmer, NET355001 MC) was added. Afterwards, the plates were frozen and incubated at −20° C. for 24 h. For harvesting, the plates were thawed and 40 μL Trypsin was added to each well to detach the cell fragments. The suspension was transferred to filter plates. The plates were then washed three times with distilled water and dried at 60° C. for 3 h. 25 μL per well Microscint were added and the proliferation rate was determined by measuring thymidine incorporation (CPM; counts per minute) using a liquid scintillation counter (1450 Microbeta Wallac Trilux, Perkin-Elmer).

VCaP cells [3] = assay: Assessment of caspase 3 activity (apoptosis induction); conditions: 10 μM MDV-3100 and/or 1 μM mAb, up to 96 hours
Protocol: To acquire live cell images of cells undergoing caspase-3/7 mediated apoptosis upon treatment with different concentrations of MDV-3100, IGF mAb_1, and the combination of both agents, the CellPlayer™ 96-Well Kinetic Caspase-3/7 Reagent (Essen BioScience; #4440) was used. 50000 VCaP cells/100 μl/well were seeded and treated on the next day with the respective concentrations of both agents in growth medium in the absence of R1881. The Caspase-3/7 reagent was diluted to a final concentration of 5 μM in 100 μl per well of growth medium and added to the medium. The plate was placed within a microplate tray into the IncuCyte™ 2011A and 3 images per well were acquired every 4 hours for 7 days using the phase contrast and fluorescence channels.

VCaP cells [4] = assay: Cell cycle analysis using flow cytometry (propidium iodide)
Protocol: 4×10^5 VCaP cells were treated with 1 μM of IGF mAb_1 and 10 μM of MDV-3100, and the combination of both agents, and incubated in 6-well plates at 37° C. for 24 h, 48 h and 72 h. Subsequently, the supernatant was transferred to FACS tubes, adherent cells were detached with trypsin and collected in the respective FACS tubes. After centrifugation, the medium was discarded and the cell pellet was fixed in ice-cold 70% ethanol for a minimum of 2 h at 4° C. After removing the ethanol entirely, fixed cells were stained with propidium iodide (10 μg/ml; Sigma; P4864-10 mL) in a hypotonic buffer solution (0.1% sodium citrate, 0.1% (v/v) triton X-100, 100 μg/ml DNase-free RNase A) and incubated in the dark at room temperature for 30 minutes. Cells were analyzed using the Becton Dickinson FACS Canto II Flow cytometer and data was evaluated with the FACS Diva software.

[5] = system: IGF-1R, AR, PTEN levels and AKT-Ser473 phosphorylation in VCaP, MDA PCa 2b and DUCaP cells; assay: Western blot protein analysis after 24 hours of treatment; conditions: 24 hours treatment
Protocol: One×10^6 and 4×10^6 cells were plated in 6-well plates and 10 cm dishes, respectively, in medium containing 10% heat-inactivated FCS and after over night incubation the cells were treated with 1 μM of MDV-3100 and 100 nM of IGF mAb_1 or a combination of antibody and AR signaling inhibitor. After 24 hours the cells were lyzed on the plates, total protein was isolated and protein concentration was determined by Bradford assay. Cell lysates were snap frozen and stored at −80° C.
(§4) Western blotting was performed loading 30-50 μg of total protein lysates on a 4-12% Bis-Tris PAG (Bio Rad) and blotting with the Bio Rad trans-Blot® Turbo system using a PVDF membrane. […] Cell cycle regulators and markers of proliferation and apoptosis were analyzed using the following antibodies: p21 Waf1/Cip1 (12D1; #2947, Cell Signaling; 1:1000), CDK2 (78B2; #2546, Cell Signaling; 1:1000), Cyclin E (C-19; sc-198, Santa Cruz; 1:1000), PCNA (#2586, Cell Signaling; 1:2000), and PARP (#9542, Cell Signaling; 1:1000).
(§5) Antibody dilutions were prepared in 5% BSA or 5% non-fat dry milk in TBS-0.5% Tween20 (TBS-T). Following washes in TBS-T membranes were incubated with a polyclonal HRP-conjugated goat anti-rabbit secondary antibody (DAKO, #P0448) for 1 hour and after further washes in TBS-T antibody reactivity was detected by means of ECL/Super ECL (GE Healthcare) and exposure on ImageQuant LAS4000. […]

[6] = system: AKT phosphorylation, PARP cleavage, p21, CDK2, Cyclin E, PCNA in VCaP cells; assay: Western blot time course of AKT phosphorylation, apoptosis and cell cycle regulators
Protocol: One×10^6 and 4×10^6 cells were plated in 6-well plates and 10 cm dishes, respectively, in medium containing 10% […] and AR signaling inhibitor. […] Cell lysates were snap frozen and stored at −80° C.
as §4, §5

VCaP cells [7] = assay: Analysis of cellular doubling time; conditions: 10 μM MDV-3100, compared to untreated controls
Protocol: 3×10^5 cells/well VCaP cells were seeded in 2 mL cell culture medium per well. 24 hrs post seeding the cell culture medium was removed and replaced with DMEM+10% FCS without R1881. 24 hr following the medium change the pre-treatment wells were harvested and counted with the Beckman Coulter™ Vi-CELL XR 2.03, and 10 μM of MDV-3100 was added to the remaining cells. Four times every 24 hr VCaP cell number was determined in 3 wells for each time point. The mean value was calculated from these triplicates. To determine the generation time, following formula is used: […]

VCaP cells [8] = assay: 3D soft agar cell proliferation assay; conditions: single agent or combination
Protocol: IGF mAb_2 was used for the treatment of VCaP cells in FIG. 2B. FIG. 2C (IGF mAb_1) and FIG. 2D (IGF mAb_2) show the results of MDA PCa 2b cells. […] In a 3D soft agar cell proliferation assay (FIG. 2G), VCaP cells were treated with abiraterone acetate and IGF mAb_2.

SMILES	effect on 2D cell proliferation (in words) (DUCaP cells)	effect on 2D cell proliferation (in words) (MDA PCa 2b cells)	effect on 2D cell proliferation (in words) (VCaP cells [1])	reduction of proliferative activity (thymidine incorporation) (VCaP cells [2])	induction of caspase 3 activity / apoptosis (in words) (VCaP cells [3])	G1/G0 population (VCaP cells [4]; 10 μM MDV-3100, compared to untreated controls)	sub-G1 apoptotic cell population (VCaP cells [4]; 24 h, 48 h and 72 h, 10 μM MDV-3100 and/or 1 μM mAb)	AR protein levels [5]	IGF-1R levels [5]	p21 levels ([6]; 10 μM MDV-3100, at 8 and 24 hours)	PARP cleavage ([6]; 10 μM MDV-3100 and/or 1 μM IGF mAb_1, 8 h, 24 h, 48 h and 72 h)	cellular doubling time (generation time) (VCaP cells [7])	effect on 3D cell proliferation (in words) (VCaP cells [8])
CNC(=O)c1ccc(N2C(=S)N(c3ccc(C#N)c(C(F)(F)F)c3)C(=O)C2(C)C)cc1F [MDV-3100, 4-{3-[4-cyano-3-(trifluoromethyl)phenyl]-5,5-dimethyl-4-oxo-2-sulfanylideneimidazolidin-1-yl}-2-fluoro-N-methylbenzamide]	inhibition of cell proliferation	inhibition of cell proliferation	inhibition of cell proliferation	approximately 50%	did not induce caspase 3 activity	increased	did not induce; also recorded: does not change	slightly increased	slightly decreased	increased	did not induce	prolonged cellular doubling time	–
CC(=O)O[C@H]1CC[C@@]2(C)C(=CC[C@@H]3[C@@H]2CC[C@]2(C)C(c4cccnc4)=CC[C@@H]32)C1 [abiraterone acetate]	inhibition of cell proliferation at higher concentrations	inhibition of cell proliferation at higher concentrations	inhibition of cell proliferation at higher concentrations	–	–	–	–	–	–	–	–	–	inhibition of cell proliferation at higher concentrations
